Laboratory results reported in ChEMBL document CHEMBL4414672, “Synthesis of certain benzothieno[3,2-d]pyrimidine derivatives as a selective SIRT2 inhibitors” (Eur J Med Chem, 2020).

How the values were obtained:
Assay type in all cases: functional
CCRF-CEM = test: Growth inhibition of human CCRF-CEM cells at 10^-5 M incubated for 48 hrs by sulforhodamine B assay; conditions: read-out: GI
MOLT-4 = test: Growth inhibition of human MOLT4 cells at 10^-5 M incubated for 48 hrs by sulforhodamine B assay; conditions: MOLT-4, 48 h, read-out: GI
SR = test: Growth inhibition of human SR cells at 10^-5 M incubated for 48 hrs by sulforhodamine B assay; conditions: read-out: GI
A549 = test: Growth inhibition of human A549/ATCC cells at 10^-5 M incubated for 48 hrs by sulforhodamine B assay; conditions: A549, 48 h, read-out: GI
EKVX = test: Growth inhibition of human EKVX cells at 10^-5 M incubated for 48 hrs by sulforhodamine B assay; conditions: read-out: GI
NCI-H226 = test: Growth inhibition of human NCI-H226 cells at 10^-5 M incubated for 48 hrs by sulforhodamine B assay; conditions: NCI-H226, 48 h, read-out: GI
NCI-H322M = test: Growth inhibition of human NCI-H322M cells at 10^-5 M incubated for 48 hrs by sulforhodamine B assay; conditions: read-out: GI
NCI-H522 = test: Growth inhibition of human NCI-H522 cells at 10^-5 M incubated for 48 hrs by sulforhodamine B assay; conditions: NCI-H522, 48 h, read-out: GI
COLO 205 = test: Growth inhibition of human COLO205 cells at 10^-5 M incubated for 48 hrs by sulforhodamine B assay; conditions: COLO 205, 48 h, read-out: GI
HCC 2998 = test: Growth inhibition of human HCC2998 cells at 10^-5 M incubated for 48 hrs by sulforhodamine B assay; conditions: HCC 2998, 48 h, read-out: GI
HCT-15 = test: Growth inhibition of human HCT15 cells at 10^-5 M incubated for 48 hrs by sulforhodamine B assay; conditions: HCT-15, 48 h, read-out: GI
HT-29 = test: Growth inhibition of human HT-29 cells at 10^-5 M incubated for 48 hrs by sulforhodamine B assay; conditions: HT-29, 48 h, read-out: GI
SW-620 = test: Growth inhibition of human SW620 cells at 10^-5 M incubated for 48 hrs by sulforhodamine B assay; conditions: SW-620, 48 h, read-out: GI
SF-295 = test: Growth inhibition of human SF295 cells at 10^-5 M incubated for 48 hrs by sulforhodamine B assay; conditions: SF-295, 48 h, read-out: GI
SF-539 = test: Growth inhibition of human SF539 cells at 10^-5 M incubated for 48 hrs by sulforhodamine B assay; conditions: SF-539, 48 h, read-out: GI
SNB-19 = test: Growth inhibition of human SNB19 cells at 10^-5 M incubated for 48 hrs by sulforhodamine B assay; conditions: SNB-19, 48 h, read-out: GI
SNB-75 = test: Growth inhibition of human SNB75 cells at 10^-5 M incubated for 48 hrs by sulforhodamine B assay; conditions: SNB-75, 48 h, read-out: GI
LOX IMVI = test: Growth inhibition of human LOXIMVI cells at 10^-5 M incubated for 48 hrs by sulforhodamine B assay; conditions: read-out: GI
Malme-3M = test: Growth inhibition of human MALME-3M cells at 10^-5 M incubated for 48 hrs by sulforhodamine B assay; conditions: read-out: GI
MDA-MB-435 = test: Growth inhibition of human MDA-MB-435 cells at 10^-5 M incubated for 48 hrs by sulforhodamine B assay; conditions: MDA-MB-435, 48 h, read-out: GI
SK-MEL-28 = test: Growth inhibition of human SK-MEL-28 cells at 10^-5 M incubated for 48 hrs by sulforhodamine B assay; conditions: SK-MEL-28, 48 h, read-out: GI
UACC-257 = test: Growth inhibition of human UACC257 cells at 10^-5 M incubated for 48 hrs by sulforhodamine B assay; conditions: UACC-257, 48 h, read-out: GI
UACC-62 = test: Growth inhibition of human UACC62 cells at 10^-5 M incubated for 48 hrs by sulforhodamine B assay; conditions: UACC-62, 48 h, read-out: GI
IGROV-1 = test: Growth inhibition of human IGROV1 cells at 10^-5 M incubated for 48 hrs by sulforhodamine B assay; conditions: IGROV-1, 48 h, read-out: GI
OVCAR-3 = test: Growth inhibition of human OVCAR3 cells at 10^-5 M incubated for 48 hrs by sulforhodamine B assay; conditions: OVCAR-3, 48 h, read-out: GI
OVCAR-4 = test: Growth inhibition of human OVCAR4 cells at 10^-5 M incubated for 48 hrs by sulforhodamine B assay; conditions: OVCAR-4, 48 h, read-out: GI
OVCAR-5 = test: Growth inhibition of human OVCAR5 cells at 10^-5 M incubated for 48 hrs by sulforhodamine B assay; conditions: OVCAR-5, 48 h, read-out: GI
A498 = test: Growth inhibition of human A498 cells at 10^-5 M incubated for 48 hrs by sulforhodamine B assay; conditions: A498, 48 h, read-out: GI
ACHN = test: Growth inhibition of human ACHN cells at 10^-5 M incubated for 48 hrs by sulforhodamine B assay; conditions: read-out: GI
CAKI-1 = test: Growth inhibition of human Caki1 cells at 10^-5 M incubated for 48 hrs by sulforhodamine B assay; conditions: CAKI-1, 48 h, read-out: GI
SN12C = test: Growth inhibition of human SN12C cells at 10^-5 M incubated for 48 hrs by sulforhodamine B assay; conditions: read-out: GI
TK-10 = test: Growth inhibition of human TK10 cells at 10^-5 M incubated for 48 hrs by sulforhodamine B assay; conditions: TK-10, 48 h, read-out: GI
PC-3 = test: Growth inhibition of human PC3 cells at 10^-5 M incubated for 48 hrs by sulforhodamine B assay; conditions: PC-3, 48 h, read-out: GI
DU-145 = test: Growth inhibition of human DU145 cells at 10^-5 M incubated for 48 hrs by sulforhodamine B assay; conditions: DU-145, 48 h, read-out: GI
MCF7 = test: Growth inhibition of human MCF7 cells at 10^-5 M incubated for 48 hrs by sulforhodamine B assay; conditions: MCF7, 48 h, read-out: GI
Hs-578T = test: Growth inhibition of human Hs 578T cells at 10^-5 M incubated for 48 hrs by sulforhodamine B assay; conditions: read-out: GI
BT-549 = test: Growth inhibition of human BT549 cells at 10^-5 M incubated for 48 hrs by sulforhodamine B assay; conditions: BT-549, 48 h, read-out: GI
T47D = test: Growth inhibition of human T47D cells at 10^-5 M incubated for 48 hrs by sulforhodamine B assay; conditions: read-out: GI
MDA-MB-468 = test: Growth inhibition of human MDA-MB-468 cells at 10^-5 M incubated for 48 hrs by sulforhodamine B assay; conditions: MDA-MB-468, 48 h, read-out: GI

In the case of O=C1CSC2=Nc3c(sc4ccc(Cl)cc34)C(c3ccc4ccccc4c3)N12 (stereo not drawn), the inhibition of growth at 10 µM (CCRF-CEM) is reported as -4.04%, the inhibition of growth at 10 µM (MOLT-4) is reported as 13.7% and the inhibition of growth at 10 µM (SR) is reported as 15.4%. For the same molecule, the inhibition of growth at 10 µM (A549) was 4.93%, the inhibition of growth at 10 µM (EKVX) was 7.05% and the inhibition of growth at 10 µM (NCI-H226) was 16.7%. The inhibition of growth at 10 µM (NCI-H322M) was 6.48%, the inhibition of growth at 10 µM (NCI-H522) was 1.87% and the inhibition of growth at 10 µM (COLO 205) was -3.73%. The inhibition of growth at 10 µM (HCC 2998) was -30.1%, the inhibition of growth at 10 µM (HCT-15) was 1.72% and the inhibition of growth at 10 µM (HT-29) was -0.5%. It also gave an inhibition of growth at 10 µM (SW-620) of -3.91%, an inhibition of growth at 10 µM (SF-295) of -4.03% and an inhibition of growth at 10 µM (SF-539) of -2.59%. For the same molecule, the inhibition of growth at 10 µM (SNB-19) was -1.93%, the inhibition of growth at 10 µM (SNB-75) was 16.8% and the inhibition of growth at 10 µM (LOX IMVI) was 9.15%. The inhibition of growth at 10 µM (Malme-3M) was 4.51%, the inhibition of growth at 10 µM (MDA-MB-435) was -5.65% and the inhibition of growth at 10 µM (SK-MEL-28) was -15%. For the same molecule, the inhibition of growth at 10 µM (UACC-257) was 1.52%, the inhibition of growth at 10 µM (UACC-62) was 15.7% and the inhibition of growth at 10 µM (IGROV-1) was 10.4%. The inhibition of growth at 10 µM (OVCAR-3) was -0.24%, the inhibition of growth at 10 µM (OVCAR-4) was 3.47% and the inhibition of growth at 10 µM (OVCAR-5) was 1.49%. The inhibition of growth at 10 µM (A498) was 20%, the inhibition of growth at 10 µM (ACHN) was 7.81% and the inhibition of growth at 10 µM (CAKI-1) was 27.5%. The inhibition of growth at 10 µM (SN12C) was 9.96%, the inhibition of growth at 10 µM (TK-10) was -19.4% and the inhibition of growth at 10 µM (PC-3) was 7.88%. For the same molecule, the inhibition of growth at 10 µM (DU-145) was -8.09%, the inhibition of growth at 10 µM (MCF7) was 27.3% and the inhibition of growth at 10 µM (Hs-578T) was -0.18%. For the same molecule, the inhibition of growth at 10 µM (BT-549) was -8.05%, the inhibition of growth at 10 µM (T47D) was 15.7% and the inhibition of growth at 10 µM (MDA-MB-468) was 2.47%.

With O=[N+]([O-])c1cccc(C2NC(=S)Nc3c2sc2ccc(Cl)cc32)c1 (stereo not drawn) the inhibition of growth at 10 µM (CCRF-CEM) was -11.8%, the inhibition of growth at 10 µM (MOLT-4) was 9.49% and the inhibition of growth at 10 µM (SR) was 20.3%. For the same molecule, the inhibition of growth at 10 µM (A549) was 2.45%, the inhibition of growth at 10 µM (EKVX) was 26.5% and the inhibition of growth at 10 µM (NCI-H226) was 20.5%. For the same molecule, the inhibition of growth at 10 µM (NCI-H322M) was 6.48%, the inhibition of growth at 10 µM (NCI-H522) was 13.7% and the inhibition of growth at 10 µM (COLO 205) was -3.44%. The inhibition of growth at 10 µM (HCC 2998) was -13.8%, the inhibition of growth at 10 µM (HCT-15) was -0.11% and the inhibition of growth at 10 µM (HT-29) was 4%. The inhibition of growth at 10 µM (SW-620) was -0.61%, the inhibition of growth at 10 µM (SF-295) was 5.63% and the inhibition of growth at 10 µM (SF-539) was 5.63%. It also gave an inhibition of growth at 10 µM (SNB-19) of 8.69%, an inhibition of growth at 10 µM (SNB-75) of 24.4% and an inhibition of growth at 10 µM (LOX IMVI) of 7.83%. It also gave an inhibition of growth at 10 µM (Malme-3M) of 17.3%, an inhibition of growth at 10 µM (MDA-MB-435) of -3.92% and an inhibition of growth at 10 µM (SK-MEL-28) of -8.2%. The inhibition of growth at 10 µM (UACC-257) was -0.4%, the inhibition of growth at 10 µM (UACC-62) was 8.94% and the inhibition of growth at 10 µM (IGROV-1) was 27.5%. It also gave an inhibition of growth at 10 µM (OVCAR-3) of 7.97%, an inhibition of growth at 10 µM (OVCAR-4) of 8.46% and an inhibition of growth at 10 µM (OVCAR-5) of 0.45%. It also gave an inhibition of growth at 10 µM (A498) of 19.7%, an inhibition of growth at 10 µM (ACHN) of 13% and an inhibition of growth at 10 µM (CAKI-1) of 22%. For the same molecule, the inhibition of growth at 10 µM (SN12C) was 7.47%, the inhibition of growth at 10 µM (TK-10) was -6.1% and the inhibition of growth at 10 µM (PC-3) was 15.4%. The inhibition of growth at 10 µM (DU-145) was -8.3%, the inhibition of growth at 10 µM (MCF7) was -8.3% and the inhibition of growth at 10 µM (Hs-578T) was 11.4%. For the same molecule, the inhibition of growth at 10 µM (BT-549) was -0.23%, the inhibition of growth at 10 µM (T47D) was 30.9% and the inhibition of growth at 10 µM (MDA-MB-468) was 5.75%.
